{"source": "patent US4657898A", "about": "“N^6 -substituted adenosines and method of use” (Warner-Lambert Company, priority 1985, dated 1987)", "key": {"[1]": {"assay": "Mouse Activity and Screen Test Procedure (MAST): inhibition of locomotion (LI)", "type": "in vivo, mouse (Swiss-Webster)", "method": "Treatments are administered intraperitoneally one hour prior to testing. […] Compounds are dissolved or suspended in 0.2% Methocel. Control animals are injected with Methocel.\nImmediately following the screen test, the final phase of testing is initiated by placing each group of three mice in one actophotometer (Life Sciences, 22, 1067-1076, 1978). The actophotometer consists of a cylindrical chamber whose center is occupied by another cylinder which contains the illumination for six photocells located on the perimeter of the chamber. Six light-beam interruptions equal one count. Locomotor activity is recorded by computer at ten minute intervals for 60 minutes.\nThe compounds are identified in the Examples."}, "[2]": {"assay": "Antihypertensive evaluation (AHP3), aortic blood pressure and heart rate in conscious rats", "type": "in vivo", "details": "conscious rat", "excerpt": "[…] EVALUATION (AHP3)\nThis test procedure is described in the following paragraphs.\nA Method for the Direct Monitoring of Aortic Blood Pressure and Heart Rate from Conscious Rats\nThe continuous monitoring of pulsatile blood pressure (BP) from unrestrained conscious rats surgically equipped with polyethylene cannulas was accomplished by means of a computer assisted data capture scheme (CADCS). The basic elements of the methodology are the cannulation procedure and the CADCS.\nCannulation Procedure: Rats were anesthetized with Telazol (1:1 tiletamine HCl and zolazepam HCl); 20-40 mg/kg IM and the descending aorta exposed via a midline incision. Cannulas fabricated from polyethylene tubing were inserted into the aorta via an undersized puncture hole below the renal arteries. The puncture hole was made by a 23G disposable needle with a section of the aorta clamped off above and below the puncture site. The cannulas, consisting of a PE100 (0.86 mm ID) body and a PE50 (0.5mm ID) tip, were attached to a trocar, inserted through the psoas muscle, and passed subcutaneously along the midline of the back and externalized between the ears. The cannulas were anchored to the psoas muscle and between the scalulae (3-0 green braided suture). The midline incision was closed in two steps (muscle first, skin second) using continuous over-and over sutures (4-0 chronic). Each rat was then given penicillin 30,000 units subcutaneously (Penicillin G Procaine Sterile Suspension).\nThe rats were fitted with a harness-spring-swivel assembly designed to protect the cannula and to provide the rat relative freedom of movement. The harnesses were fabricated from nylon hook and loop tape cemented to a metal plate to which spring wires (18-8 stainless steel), were attached to brass swivels. Each polyethylene cannula was channeled through a spring and connected through a swivel to a pressure transducer (Model P23Gb; Statham Instruments; Hato Rey, Puerto Rico) and an infusion pump (Sage model 234-7; Orion Research, Cambridge, MA) by means of PE100 tubing. While on test, each rat received a continuous slow infusion of heparinized saline solution (approximately […] or 40 units of heparin per 24 hour period) to prevent clot formation. Additional \"flushes\" of the cannula with heparinized saline were carried out when the aortic pulse pressure (systolic minus diastolic) was less than 25 mm Hg.\nCADCS: The pulsatile blood pressure and heart rate of each of 32 rats was monitored every minute by means of two in-laboratory microcomputers communicating directly with a data concentrator computer. The data were first stored on the data concentrator disk and then transferred to a magnetic tape for analysis and report generation by the main research computer. The overall scheme involved modulating the primary signal from the pressure transducer, generating the primary data set of the one-minute values for systolic, diastolic, and mean blood pressures and heart rate by the in-lab microcomputer and the storage, analysis, and report generation by the main reserach computer.\nThe transducers were connected to analog signal conditioning modules. The modules provided a regulated excitation voltage for the transducers, amplification as required to interface the microprocessors and an active low pass filter to compensate for the pressure wave form distortion produced by the flexible, fluid filled, narrow cannula. The distortion was 22-26 Hz and this provided a reliable estimate of both systolic and diastolic blood pressure.\nThe microcomputers (one for each of two groups of 16 rats) were connected to the input components through the module interface units, an analog-to-digital converter for the pressure wave form signal and the digital inputs for the dose and event marker switches. The microcomputer controlled the sequential acquisition of data from the modular interface units through an internal synchronous time-of-day clock/time base generator. […]"}, "[3]": {"assay": "Mouse Activity and Screen Test Procedure (MAST): screen test failure (ST)", "details": "lowest dose at which an A rating is achieved, screen test; i.p., mouse", "method": "Nine unfasted Swiss-Webster male mice weighing 20-30 g are equally divided into three groups for each drug dose to be tested. That is, data for each dose level was generated by three separate groups of three mice each.\nA minimum of three dose levels (10, 30, and 100 mg/kg) are tested for each drug. Treatments are administered intraperitoneally one hour prior to testing. All dosages are calculated as parent compound and given in volumes of 10 ml/kg. Compounds are dissolved or suspended in 0.2% Methocel. Control animals are injected with Methocel.\nTesting: A two part testing procedure is started one hour postinjection. First, the screen test (ST) is performed (see Pharmac. Biochem. Behav. 6, 351-353, 1977). Briefly this test consists of placing mice on individual wire screens which are then rotated 180 degrees at the start of a 60 second observation period. The number of mice falling off the inverted screen is recorded.\nData: The data obtained from the screen test are expressed as percent of mice falling off the screen. Data derived from locomotor activity of drug treated mice are compared to the activity of vehicle treated animals and are expressed as percent inhibition of spontaneous locomotion. All percentages reported for inhibition of locomotion (LI) are based upon data accumulated for one hour. Both phases of testing are graded: A=60-100%; C=31-59%; and N=0-30%. An overall dose rating is obtained by the following criteria:\nLAD refers to the lowest dose at which an A rating is achieved. […] The compounds are identified in the Examples."}}}
{"smiles": "OC[C@H]1O[C@@H](n2cnc3c(NCC(c4ccccc4)c4ccccc4)ncnc32)[C@H](O)[C@@H]1O", "note": "[Example 1, N^6-(2,2-Diphenylethyl)adenosine]", "values": [{"measurement": "Inhibition of mouse locomotor activity", "setting": "[1]; 10 mg/kg i.p.", "result": 92, "unit": "%"}, {"measurement": "Inhibition of mouse locomotor activity", "setting": "[1]; 30 mg/kg i.p.", "result": 93, "unit": "%"}, {"measurement": "Inhibition of mouse locomotor activity", "setting": "[1]; 100 mg/kg i.p.", "result": 94, "unit": "%"}, {"measurement": "HR.uparw. (change in heart rate)", "setting": "[2]; 1 mg/kg", "result": "< 20", "unit": "%"}, {"measurement": "Mμ.c..dwnarw. (change in MAP)", "setting": "[2]; 1 mg/kg", "result": 16, "unit": "%"}, {"measurement": "HR.uparw. (change in heart rate)", "setting": "[2]; 3 mg/kg", "result": "< 20", "unit": "%"}, {"measurement": "Mμ.c..dwnarw. (change in MAP)", "setting": "[2]; 3 mg/kg", "result": 20, "unit": "%"}, {"measurement": "HR.uparw. (change in heart rate)", "setting": "[2]; 10 mg/kg", "result": "< 20", "unit": "%"}, {"measurement": "Mμ.c..dwnarw. (change in MAP)", "setting": "[2]; 10 mg/kg", "result": 20, "unit": "%"}, {"measurement": "HR.uparw. (change in heart rate)", "setting": "[2]; 30 mg/kg", "result": "< 20", "unit": "%"}, {"measurement": "Mμ.c..dwnarw. (change in MAP)", "setting": "[2]; 30 mg/kg", "result": 35, "unit": "%"}, {"measurement": "MAST ST LAD", "setting": "[3]", "result": "> 100", "unit": "mg/kg"}]}
{"smiles": "OC[C@H]1O[C@@H](n2cnc3c(NCC(c4ccc(Cl)cc4)c4ccc(Cl)cc4)ncnc32)[C@H](O)[C@@H]1O", "note": "[Example 17, N^6-(2,2-Di(4-chlorophenyl)ethyl)adenosine]", "values": [{"measurement": "MAST ST LAD", "setting": "[3]", "result": "> 100", "unit": "mg/kg"}]}
{"smiles": "Nc1nc(NCC(c2ccc(Cl)cc2)c2ccc(Cl)cc2)c2ncn([C@@H]3O[C@H](CO)[C@@H](O)[C@H]3O)c2n1", "note": "[Example 18]", "values": [{"measurement": "MAST ST LAD", "setting": "[3]", "result": "> 30", "unit": "mg/kg"}]}
{"smiles": "COc1ccc(C(CNc2ncnc3c2ncn3[C@@H]2O[C@H](CO)[C@@H](O)[C@H]2O)c2ccccc2)cc1", "note": "(stereo partly drawn) [Example 19, N^6-(2-(4-Methoxyphenyl)-2-phenylethyl)adenosine]", "values": [{"measurement": "MAST ST LAD", "setting": "[3]", "result": 30, "unit": "mg/kg"}]}
{"smiles": "CC(CNc1nc(N)nc2c1ncn2[C@@H]1O[C@H](CO)[C@@H](O)[C@H]1O)(c1ccccc1)c1ccccc1", "note": "[Example 21, N^6-(2,2-Diphenylpropyl)-2-aminoadenosine]", "values": [{"measurement": "MAST ST LAD", "setting": "[3]", "result": "> 100", "unit": "mg/kg"}]}
{"smiles": "OC[C@H]1O[C@@H](n2cnc3c(NCC(O)(c4ccccc4)c4ccccc4)ncnc32)[C@H](O)[C@@H]1O", "note": "[Example 22, N^6-(2,2-Diphenyl-2-hydroxyethyl)adenosine]", "values": [{"measurement": "MAST ST LAD", "setting": "[3]", "result": 100, "unit": "mg/kg"}]}
{"smiles": "Nc1nc(NCC(O)(c2ccccc2)c2ccccc2)c2ncn([C@@H]3O[C@H](CO)[C@@H](O)[C@H]3O)c2n1", "note": "[Example 23, N^6-(2,2-Diphenyl-2-hydroxyethyl)-2-aminoadenosine]", "values": [{"measurement": "MAST ST LAD", "setting": "[3]", "result": "> 100", "unit": "mg/kg"}]}
{"smiles": "COC(=O)C(CNc1ncnc2c1ncn2[C@@H]1O[C@H](CO)[C@@H](O)[C@H]1O)(c1ccccc1)c1ccccc1", "note": "[Example 24, N^6-(2-Carbomethoxy-2,2-diphenylethyl)adenosine]", "values": [{"measurement": "MAST ST LAD", "setting": "[3]", "result": "> 30", "unit": "mg/kg"}]}
{"smiles": "CC(=O)OC[C@H]1O[C@@H](n2cnc3c(NCC(c4ccccc4)c4ccccc4)ncnc32)[C@H](OC(C)=O)[C@@H]1OC(C)=O", "note": "[Example 25, 2',3',5'-Tri-O-acetyl-N^6-(2,2-diphenylethyl)adenosine]", "values": [{"measurement": "MAST ST LAD", "setting": "[3]", "result": "> 100", "unit": "mg/kg"}]}
{"smiles": "O=C(OC[C@H]1O[C@@H](n2cnc3c(NCC(c4ccccc4)c4ccccc4)ncnc32)[C@H](OC(=O)c2ccccc2)[C@@H]1OC(=O)c1ccccc1)c1ccccc1", "note": "[Example 26, 2',3',5'-Tri-O-benzoyl-N^6-(2,2-diphenylethyl) adenosine]", "values": [{"measurement": "MAST ST LAD", "setting": "[3]", "result": "> 100", "unit": "mg/kg"}]}
{"smiles": "CC(=O)OC[C@H]1O[C@@H](n2cnc3c(NCC(c4ccccc4)c4ccccc4)nc(Cl)nc32)[C@H](OC(C)=O)[C@@H]1OC(C)=O", "note": "[Example 27, 2',3',5'-Tri-O-acetyl-N^6-(2,2-diphenylethyl)-2-chloroadenosine]", "values": [{"measurement": "MAST ST LAD", "setting": "[3]", "result": "> 100", "unit": "mg/kg"}]}
{"smiles": "O=P(O)(O)OC[C@H]1O[C@@H](n2cnc3c(NCC(c4ccccc4)c4ccccc4)ncnc32)[C@H](O)[C@@H]1O", "note": "[Example 28, N^6-(2,2-Diphenylethyl)adenosine-5'-phosphate]", "values": [{"measurement": "MAST ST LAD", "setting": "[3]", "result": "> 30", "unit": "mg/kg"}]}
{"smiles": "CC1(C)O[C@@H]2[C@H](O1)[C@@H](CO)O[C@H]2n1cnc2c(NCC(c3ccccc3)c3ccccc3)ncnc21", "note": "[Example 29, 2',3'-O-Isopropylidene-N^6-(2,2-diphenylethyl) adenosine]", "values": [{"measurement": "MAST ST LAD", "setting": "[3]", "result": "> 100", "unit": "mg/kg"}]}
